The text below walks through data of ChEMBL document CHEMBL1142810, “Discovery of a potent and selective 5-ht5A receptor antagonist by high-throughput chemistry” (Bioorg Med Chem Lett, 2005).

pKi: −log10 of the molar value.

For this assay, the target named is 5-hydroxytryptamine receptor 5A (Homo sapiens, UniProt P47898). Nature of the assay: Binding affinity towards human 5-hydroxytryptamine receptor 5A expressed in CHO cells using the radioligand [3H]LSD. The assay is classed as cell-based.
5-hydroxytryptamine receptor 5A, sequence (P47898 whole entry): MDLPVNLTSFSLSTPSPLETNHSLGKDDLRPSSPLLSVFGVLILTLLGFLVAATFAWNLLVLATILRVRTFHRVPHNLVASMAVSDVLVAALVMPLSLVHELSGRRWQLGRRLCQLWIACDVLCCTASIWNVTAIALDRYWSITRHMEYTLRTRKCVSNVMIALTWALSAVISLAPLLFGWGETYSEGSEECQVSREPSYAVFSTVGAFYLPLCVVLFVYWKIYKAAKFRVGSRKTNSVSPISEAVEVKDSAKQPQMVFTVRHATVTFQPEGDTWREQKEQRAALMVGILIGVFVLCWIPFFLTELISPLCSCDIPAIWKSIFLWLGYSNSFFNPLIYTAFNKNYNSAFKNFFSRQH
What is called pKi is the negative decadic logarithm of the Ki, by convention in mol/L. The low end stands for a high Ki, the high end for a low Ki. Take `COc1cccc(CCN(Cc2ccc(-c3ccc(CNCCc4ccccc4)cc3)cc2)C(=O)/C=C/c2ccccc2)c1`: the pKi is 6.30.

As for `O=C(c1ccc2c(c1)OCO2)N(Cc1ccc(-c2ccc(CNCCc3ccccc3)cc2)cc1)Cc1cccnc1`, the pKi was 6.70.

In the case of `CN(C)CCN(Cc1ccc(-c2ccc(CNCCc3ccccc3)cn2)cc1)C(=O)CCC1CCCC1`, the pKi was 7.90.

For the compound `CN(C)CCN(Cc1ccc(-c2ccc(CNC3Cc4ccccc4C3)cc2)cc1)C(=O)CCC1CCCC1`, the pKi was 6.60.

The compound `O=C(/C=C/c1ccccc1)N(Cc1ccc(-c2ccc(CNCc3ccc4c(c3)OCO4)cc2)cc1)Cc1cccnc1` showed a pKi of 6.00.

For the compound `CN(C)CCN(Cc1ccc(-c2ccc(CN)cc2)cc1)C(=O)CCC1CCCC1`, the pKi is 5.50.

Regarding `CN(C)CCN(Cc1ccc(-c2ccc(CNCCc3ccccc3)cc2)nc1)C(=O)/C=C/c1ccccc1`, the pKi is 7.60.

Compound `CN(C)CCN(Cc1ccc(-c2ccc(CNCCc3ccccc3)cc2)nc1)C(=O)CCC1CCCC1` gave a pKi of 7.50.

In the case of `CN(C)CCN(Cc1ccc(-c2ccc(CNCCc3ccccc3)cc2)cc1)C(=O)C1CC1c1ccccc1` (centres undefined), the pKi is 7.10.

`c1ccc(CCNCc2ccc(-c3ccc(CNC4CCN(Cc5ccccc5)CC4)cc3)cc2)cc1`: the pKi is 6.90.

For `COCCNCc1ccc(-c2ccc(CN(Cc3cccnc3)C(=O)/C=C/c3ccccc3)cc2)cc1`, the pKi was 5.20.

In turn, `CN(C)CCN(Cc1ccc(-c2ccc(CNCCc3ccccc3)cc2)cc1)S(=O)(=O)/C=C/c1ccccc1` had a pKi of 6.60.

Consider `CN(C)CCN(Cc1ccc(-c2ccc(CNCCOc3ccccc3)cc2)cc1)C(=O)CCC1CCCC1`, for which the pKi is 7.10.

The compound `CN(C)CCN(Cc1ccc(-c2ccc(CNCCc3ccccc3)cc2)cc1)C(=O)Nc1ccccc1` showed a pKi of 6.40.

In turn, `c1ccc(CCNCc2ccc(-c3cccc(CNC4CCN(Cc5ccccc5)CC4)c3)cc2)cc1` had a pKi of 6.70.

The compound `CN(C)CCN(Cc1ccc(-c2ccc(CNCCc3ccccc3)cc2)cc1)C(=O)c1ccccc1` showed a pKi of 6.20.

In turn, `O=C(CCC1CCCC1)N(Cc1ccc(-c2ccc(CNCCc3ccccc3)cc2)cc1)CC1CCCCN1` (centres undefined) had a pKi of 7.60.

As for `CN(C)CCN(Cc1ccc(-c2ccc(CNCCc3ccccn3)cc2)cc1)C(=O)CCC1CCCC1`, the pKi was 7.50.

On to `CN(C)CCN(Cc1ccc(-c2ccc(CNCCc3ccccc3)cn2)cc1)C(=O)/C=C/c1ccccc1`, for which the pKi was 8.30.
